Consider 24 compounds from US20110044938A1 (NYCOMED GMBH, priority 2006, published 2011).

Assay [1] has as its system subclones of RKO colon adenocarcinoma cells (RKOp27 or RKOp21) arrested by Ponasterone A. Briefly: Alamar Blue cell viability assay, cell cycle specific mode of action: cells arrested by ectopic p27Kip1 induced by Ponasterone A versus proliferating cells. In kind it is cell-based. The following applies: Homo sapiens, RKO p27 induced (arrested) cells, 10 μM Ponasterone A, 72 hours, value = class bound given in Table A, read-out: −logIC50 RKO p27 induced (arrested) (converted). The procedure, abridged:
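Viability of proliferating versus Ponasterone A (10 μM)-arrested RKOp27/RKOp21 cells after 72 h compound exposure at 37° C, in quadruplicate. Read-out is Alamar Blue fluorescence (544/590 nm) normalised to untreated cells = 100%; values as −log IC50.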
(In general: Resazurin is reduced to fluorescent resorufin, in cell work by metabolically active cells.)

The subject of assay [2] is RKO (RKOp27) human colon adenocarcinoma cells. Briefly: Alamar Blue cell viability assay, anti-proliferative/cytotoxic activity on proliferating RKO subclones. The format is cell-based. The following applies: RKOp27, 72 h, RKO p27 uninduced (proliferating) cells, value = class bound given in Table A, read-out: −logIC50 RKO p27 uninduced (proliferating) (converted). The procedure, abridged:
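Alamar Blue fluorescence (ex 544, em 590 nm) after 72 h compound exposure at 37 °C, 5% CO2, normalised to untreated controls set at 100%. Cells were seeded at 5000 per well and dosed 24 h later with serial semi-logarithmic dilutions in 10% FCS DMEM, four replicates each. −log IC50 [mol/l] was derived from concentration-effect curves.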

Consider `CCNC(=O)OC[C@H]1CCc2c(sc(NC(=O)/C=C/c3cccnc3)c2C#N)C1` [Example 9a, (S)-Ethyl-carbamic acid 3-cyano-2-((E)-3-pyridin-3-yl-allanoylamino)-4,5,6,7-tetrahydro-benzo[b]thiophen-6-ylmethyl ester], for which the IC50 in assay [1] was not below 100 µM; in assay [2] it was not above 501 nM.
The like results for `N#Cc1c(NC(=O)/C=C/c2cccnc2)sc2c1CC[C@@H](COC(=O)N1CCC[C@@H](O)C1)C2` [Example 87a, (R)-3-Hydroxy-piperidine-1-carboxylic acid (R)-3-cyano-2-((E)-3-pyridin-3-yl-allanoylamino)-4,5,6,7-tetrahydro-benzo[b]thiophen-6-ylmethylester] were, in that order, not below 100 µM and not above 501 nM.
The like results for `CCOc1ccccc1CCC(=O)Nc1sc2c(c1C#N)CCC(COC(=O)NCc1cncn1C)C2` (stereo not drawn) [Example 177, (3-Methyl-3H-imidazol-4-ylmethyl)-carbamic acid 3-cyano-2-[3-(2-ethoxy-phenyl)-propanoylamino]-4,5,6,7-tetrahydro-benzo[b]thiophen-6-ylmethyl ester] were, in that order, not below 50.1 µM and not above 501 nM.
Take `Cc1cc(CNC(=O)OC2CCc3c(sc(NC(=O)CC(C)c4ccccc4)c3C#N)C2)no1` (stereo not drawn) [Example 295, (5-Methyl-isoxazol-3-ylmethyl)-carbamic acid 3-cyano-2-(3-phenyl-butanoylamino)-4,5,6,7-tetrahydro-benzo[b] thiophen-6-yl ester]: the results for the IC50 in assay [1] and in assay [2] were not below 50.1 µM and not above 501 nM, respectively.
Turning to `CCOc1ccccc1CCC(=O)Nc1sc2c(c1C#N)CCC(OC(=O)NCc1ccnn1C)C2` (stereo not drawn) [Example 169, (2-Methyl-2H-pyrazol-3-ylmethyl)-carbamic acid 3-cyano-2-[3-(2-ethoxy-phenyl)-propanoylamino]-4,5,6,7-tetrahydro-benzo[b]thiophen-6-yl ester], the IC50 in assay [1] is not below 50.1 µM; in assay [2], not above 501 nM.
The like results for `N#Cc1c(NC(=O)/C=C/c2cccnc2)sc2c1CCC(COC(=O)N[C@H]1CC[C@H](O)CC1)C2` (stereo partly drawn) [Example 100, trans-4-Hydroxycyclohexyl-carbamic acid 3-cyano-2-((E)-3-pyridin-3-yl-allanoylamino)-4,5,6,7-tetrahydro-benzo[b]thiophen-6-ylmethyl ester] were, in that order, not below 100 µM and 501 to 2000 nM.
The like results for `CN(C)C(=O)OC1CCc2c(sc(NC(=O)/C=C/c3cccnc3)c2C#N)C1` (stereo not drawn) [Example 78, Dimethyl-carbamic acid 3-cyano-2-((E)-3-pyridin-3-yl-allanoylamino)-4,5,6,7-tetrahydro-benzo[b]thiophen-6-yl ester] were, in that order, not below 100 µM and not above 501 nM.
With `COc1cccc(C(C)CC(=O)Nc2sc3c(c2C#N)CCC(COC(=O)NCc2csc(C)n2)C3)c1` (stereo not drawn) [Example 363, (2-Methyl-thiazol-4-ylmethyl)-carbamic acid 3-cyano-2-[3-(3-methoxy-phenyl)-butanoyl-amino]-4,5,6,7-tetrahydro-benzo[b]thiophen-6-ylmethyl ester], the results for the IC50 in assay [1] and in assay [2] were not below 100 µM and 501 to 2000 nM, respectively.
For `CCN(C)C(=O)OC1CCc2c(sc(NC(=O)/C=C/c3cccnc3)c2C#N)C1` (stereo not drawn) [Example 91, Ethyl-methyl-carbamic acid 3-cyano-2-((E)-3-pyridin-3-yl-allanoylamino)-4,5,6,7-tetrahydro-benzo[b]thiophen-6-yl ester], in that order: not below 100 µM and not above 501 nM.
As to `COc1cccc(C(C)CC(=O)Nc2sc3c(c2C#N)CCC(OC(=O)NCCn2ccnc2)C3)c1` (stereo not drawn) [Example 280, (2-Imidazol-1-yl-ethyl)-carbamic acid 3-cyano-2-[3-(3-methoxy-phenyl)-butanoylamino]-4,5,6,7-tetrahydro-benzo[b] thiophen-6-yl ester], the IC50 was not below 50.1 µM in assay [1] and 501 to 2000 nM in assay [2].
`CC(CC(=O)Nc1sc2c(c1C#N)CCC(COC(=O)N1CCCC1)C2)c1cccnc1` (stereo not drawn) [Example 357, Pyrrolidine-1-carboxylic acid 3-cyano-2-(3-pyridin-3-yl-butanoylamino)-4,5,6,7-tetrahydro-benzo[b]thiophen-6-ylmethyl ester]: the IC50 was not below 100 µM in assay [1] and not above 501 nM in assay [2].
For the compound `COC(=O)[C@@H]1CCCN1C(=O)OC1CCc2c(sc(NC(=O)/C=C/c3cccnc3)c2C#N)C1` (stereo partly drawn) [Example 81, 2-(S)-Pyrrolidine-1,2-dicarboxylic acid 1-[3-cyano-2-((E)-3-pyridin-3-yl-allanoylamino)-4,5,6,7-tetrahydro-benzo[b]thiophen-6-yl] ester 2-methyl ester], the IC50 was not below 100 µM in assay [1] and 501 to 2000 nM in assay [2].
Take `CC(CC(=O)Nc1sc2c(c1C#N)CCC(COC(=O)NCc1nccn1C)C2)c1ccccc1` (stereo not drawn) [Example 311, (1-Methyl-1H-imidazol-2-ylmethyl)-carbamic acid 3-cyano-2-(3-phenyl-butanoylamino)-4,5,6,7-tetrahydro-benzo[b] thiophen-6-ylmethyl ester]: the IC50 in assay [1] was not below 10 µM; in assay [2], not above 501 nM.
For `CCn1nccc1CNC(=O)OC1CCc2c(sc(NC(=O)/C=C/c3cccnc3)c2C#N)C1` (stereo not drawn) [Example 69, (2-Ethyl-2H-pyrazol-3-ylmethyl)-carbamic acid 3-cyano-2-((E)-3-pyridin-3-yl-allanoylamino)-4,5,6,7-tetrahydro-benzo[b]thiophen-6-yl ester], in that order: not below 100 µM and not above 501 nM.
The like results for `CC(CC(=O)Nc1sc2c(c1C#N)CCC(OC(=O)NCc1ccno1)C2)c1ccccc1` (stereo not drawn) [Example 372, (Isoxazol-5-ylmethyl)-carbamic acid 3-cyano-2-(3-phenyl-butanoylamino)-4,5,6,7-tetrahydro-benzo[b]thiophen-6-yl ester] were, in that order, not below 50.1 µM and not above 501 nM.
`COCCOC(=O)OC1CCc2c(sc(NC(=O)/C=C/c3cccnc3)c2C#N)C1` (stereo not drawn) [Example 27, Carbonic acid 3-cyano-2-((E)-3-pyridin-3-yl-allanoylamino)-4,5,6,7-tetrahydro-benzo[b]thiophen-6-yl ester 2-methoxy-ethyl ester]: the IC50 is not below 100 µM in assay [1] and not above 501 nM in assay [2].
Take `CCOc1ccccc1CCC(=O)Nc1sc2c(c1C#N)CCC(OC(=O)NCc1ccncc1)C2` (stereo not drawn) [Example 171, Pyridin-4-ylmethyl-carbamic acid 3-cyano-2-[3-(2-ethoxy-phenyl)-propanoylamino]-4,5,6,7-tetrahydro-benzo[b]thiophen-6-yl ester]: the IC50 was not below 50.1 µM in assay [1] and not above 501 nM in assay [2].
In the case of `CC(CC(=O)Nc1sc2c(c1C#N)CCC(COC(=O)NCc1cccn1C)C2)c1cccnc1` (stereo not drawn) [Example 285, (1-Methyl-1H-pyrrol-2-ylmethyl)-carbamic acid 3-cyano-2-(3-pyridin-3-yl-butanoylamino)-4,5,6,7-tetrahydro-benzo[b]thiophen-6-ylmethyl ester], the IC50 in assay [1] was not below 50.1 µM; in assay [2], 501 to 2000 nM.
As for `CCOc1ccccc1/C=C/C(=O)Nc1sc2c(c1C#N)CCC(COC(=O)NCCn1ccnc1)C2` (stereo not drawn) [Example 32, (2-Imidazol-1-yl-ethyl)-carbamic acid 3-cyano-2-[(E)-3-(2-ethoxy-phenyl)-allanoylamino]-4,5,6,7-tetrahydro-benzo[b]thiophen-6-ylmethyl ester], the IC50 in assay [1] was not below 100 µM; in assay [2], 501 to 2000 nM.
For `CCOC(=O)OC1CCc2c(sc(NC(=O)CCc3ccccc3OCC)c2C#N)C1` (stereo not drawn) [Example 152, Carbonic acid 3-cyano-2-[3-(2-ethoxy-phenyl)-propanoylamino]-4,5,6,7-tetrahydro-benzo[b]thiophen-6-yl ester ethyl ester], in that order: not below 100 µM and not above 501 nM.
For `N#Cc1c(NC(=O)/C=C/c2cccnc2)sc2c1CCC(OC(=O)N1CC(F)C1)C2` (stereo not drawn) [Example 124, 3-Fluoro-azetidine-1-carboxylic acid 3-cyano-2-((E)-3-pyridin-3-yl-allanoylamino)-4,5,6,7-tetrahydro-benzo[b]thiophen-6-yl ester], the figures for the IC50 in assay [1] and in assay [2] were not below 100 µM and not above 501 nM, respectively.
Take `Cc1cc(CNC(=O)OC2CCc3c(sc(NC(=O)CC(C)c4ccccc4)c3C#N)C2)n(C)n1` (stereo not drawn) [Example 302, (2,5-Dimethyl-2H-pyrazol-3-ylmethyl)-carbamic acid 3-cyano-2-(3-phenyl-butanoylamino)-4,5,6,7-tetrahydro-benzo[b]thiophen-6-yl ester]: the values for the IC50 in assay [1] and in assay [2] were not below 50.1 µM and not above 501 nM, respectively.
`COc1cccc(CCC(=O)Nc2sc3c(c2C#N)CCC(OC(=O)OCc2cccnc2)C3)c1` (stereo not drawn) [Example 219, Carbonic acid 3-cyano-2-[3-(3-methoxy-phenyl)-propanoylamino]-4,5,6,7-tetrahydro-benzo[b]thiophen-6-yl ester pyridin-3-ylmethyl ester]: the IC50 in assay [1] was not below 100 µM; in assay [2], 501 to 2000 nM.
The like results for `COc1cccc(CCC(=O)Nc2sc3c(c2C#N)CCC(COC(=O)NCc2cnn(C)c2)C3)c1` (stereo not drawn) [Example 239, (1-Methyl-1H-pyrazol-4-ylmethyl)-carbamic acid 3-cyano-2-[3-(3-methoxy-phenyl)-propanoylamino]-4,5,6,7-tetrahydro-benzo[b]thiophen-6-ylmethyl ester] were, in that order, not below 100 µM and not above 501 nM.
